From patent publication US20250025440A1, “COMPOSITIONS AND METHODS FOR MANAGEMENT OF HUMAN PAPILLOMA VIRUS-ASSOCIATED CANCERS” (LOMA LINDA UNIVERSITY, priority 2021, published 2025)
Like-named read-outs stand apart in the source and are kept apart here.

Tests used:
[1] = test system: SCC104 (HPV+ HNSCC cell line); assay: MTT cell viability of gambogic acid analogs; format: cell-based; settings: for rank among highest IC50s relative to the parent compound: SCC104, MTT
Experimental: Next, the analogs were evaluated for functional activity using the HPV^+ HNSCC cell line, SCC104, in the MTT assay as described previously to determine whether similar findings would be observed as in the in vitro AlphaScreen™ analysis. With one exception, the patterns were similar to the AlphaScreen™ data, but the differences were relatively more pronounced in the cell-based screen (FIG. 6B). […] Based on these findings, 30-hydroxygambogic acid (GA-OH) was selected as a candidate for more extensive functional studies.
(§1) Using the SciFinder and Zinc15 databases, several gambogic acid structural analogs were identified and selected. The 8 analogs were obtained as follow: gambogenic amide (Enzo Life Sciences), gambogenic acid (Selleckchem), morellic acid (Aobious), 30-hydroxy gambogic acid (Quality Phytochemicals, LLC), acetyl gambogic acid (Microsource), and gambogin, neogambogic acid and isomorellinol (MolPort Natural Products). Additional gambogic acid was purchased from Tocris. The interactions of the analogues with E6-caspase 8 was tested using AlphaScreen™ technology using the same protocol as with the primary screen, and were compared to the parent compound. The effect on cell viability was also similarly done in HPV^+ and HPV^− cell lines via the MTT assay (see below) and potency was determined using GraphPad IC50 curve fitting.
All working concentrations were diluted in PBS to the desired concentration before use. To test the effect of gambogic acid and/or its derivatives on cell viability, all cell lines were seeded at 2×10^4 per well in 96-well plates and allowed to adhere overnight. Various concentrations of the analogues were added and the cells incubated at 37° C. for 24 hr. Viability was then measured using the MTT assay, performed as described previously. All experiments were repeated at least three times (three biological replicates, carried out on different days). Data presented are from a representative experiment. Cell viability and potency were assessed from % inhibition relative to the vehicle control, and IC50 dose curves were generated using GraphPad Prism.

[2] = target: T1, full-length HPV E6 binding to human Caspase 8 (Human papillomavirus type 16, UniProt P03126); settings: for inhibition of E6-caspase 8 binding relative to GA: SAR analogs
T1 construct: made in house; host or cells: E. coli
T1 sequence (P03126 whole entry): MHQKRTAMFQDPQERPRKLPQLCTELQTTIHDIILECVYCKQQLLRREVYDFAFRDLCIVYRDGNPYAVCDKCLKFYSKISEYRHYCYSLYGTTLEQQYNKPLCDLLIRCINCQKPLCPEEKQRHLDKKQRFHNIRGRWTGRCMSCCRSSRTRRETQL
Experimental: Three structurally diverse libraries (Prestwick library, Microsource Spectrum library and an in-house collection at Kansas University; see Table 1) were screened for the ability of compounds to inhibit the binding of full-length HPV E6 to human Caspase 8 using a previously optimized AlphaScreen™ protocol.
The compounds were diluted to a working concentration in DMSO and screened at a single-point final concentration of 10 μM with no replicates. Briefly, 75 nL of each compound was transferred and added to wells of the destination 384-well plate using the Echo dispenser to 4 μL of blocking solution. 4 μL of 800 nM GST-E6 and 4 μL of His6-Caspase 8 were added and pre-incubated at room temperature for 60 minutes. 8 μL of the donor and acceptor bead mixture (final concentration of 20 μg/ml) was then added. The plates were sealed and incubated for 4 hours at room temperature before the plates were read using the Envision™ Multi-Label plate reader (Perkin Elmer Inc.). […] A 10-point serial dilution of these compounds was done for dose-dependency reconfirmation. Dose response inhibition curves were constructed and IC50 calculated using GraphPad Prism using four parameter non-linear regression analysis.
The first counter-screen assay was based using the GST-His6 fusion peptide as the E6-binding partner instead of GST-E6-His6-Caspase 8. Hit candidate compounds from the primary screen were prepared using a 6-point serial dilution. Using an Echo dispenser, compounds were transferred to plates containing 4 μL of blocking buffer. 8 μL of 5 nM GST-His6 peptide substrate was then added. The mixture was pre-incubated at room temperature for 60 minutes. Glutathione donor and nickel chelate acceptor beads (final concentration 20 μg/mL) were added and incubated for another 60 minutes at room temperature. Dose-dependency of the compounds using GST-E6-His6-Caspase 8 was performed in parallel using the same protocol as in the primary screen. The signals were then read using the Envision™ plate reader.
as §1

[3] = target: T2, E6 binding to E6AP (GST-E6 and His6-E6AP) (Human papillomavirus type 16, UniProt P03126); assay: AlphaScreen E6-E6AP binding (cross-validation); settings: head to head comparison gambogic acid vs myricetin; read-out: IC50 against E6-E6AP
T2 construct: made in house; host or cells: E. coli (stated for GST-E6 only)
T2 sequence (P03126 whole entry): as above
Experimental: Its activity was then cross-validated by performing additional AlphaScreening™ tests using GST-E6 and His6-E6AP as substrates. […] The activity of these two inhibitors against E6-Caspase 8 binding were evaluated in parallel for a head to head comparison.
The selected compound(s) were then cross-validated with a related but different primary screen assay. Specifically, the caspase 8 used in the primary screen was replaced with E6AP and the inhibitory activity was evaluated against E6 binding to E6AP (E6-E6AP) using the same steps as in the AlphaScreen™ protocol described above.

[4] = test system: HPV- (SCC19, SCC29) and HPV+ (SCC47, SCC104, SCC152) HNSCC cell lines; assay: Sensitization of HNSCC cell lines to photon radiation; format: cell-based; settings: radiation 0-4Gy followed by inhibitor; DER10
Experimental: The dose enhancement ratio for 10% survival (DER10) was calculated as follows: DER10=(Dose correlated with 10% survival fraction in radiation-treated cells)/(Dose correlated with 10% survival fraction in radiation and inhibitor treated cells).
CCDP, Cetuximab, and GA-OH were evaluated for their ability to sensitize HNSCC cell lines to photon radiation.
Colonies were counted after 14-21 days and normalized to vehicle control and survival analysis was performed.
Sensitization of an additional HPV^+ cell line to radiation by CDDP, Cetuximab and GA-OH was evaluated.

[5] = test system: HPV+ (SCC47, SCC090, SCC104, SCC152) and HPV- (SCC19, SCC29, SCC49, SCC84) HNSCC cell lines; assay: MTT cell viability, HNSCC panel; format: cell-based
Experimental: While SAR studies using the SCC104 cell line provided evidence of the activity of the analogs, further studies were conducted to assess not just the potency, but also the selectivity. As a step towards that goal, the efficacy of GA-OH was evaluated in a panel containing both HPV^+ and HPV^− HNSCC cell lines using MTT cell viability assays. Four HPV^+ cell lines (SCC47, SCC090, SCC104, SCC152) and four HPV^− cell lines (SCC19, SCC29, SCC49, SCC84) were utilized. GA-OH behaved dose dependently in cell lines both with or without HPV. […] FIGS. 7A-7C are graphical representations of the sensitivity of HPV^+ cell lines and HPV^− cell lines to GA-OH-mediated growth inhibition. FIG. 7A is a graphical representation of the cell growth inhibition of HNSCC HPV^+ and HPV^− cell lines by GA-OH (+ and closed shapes represent HPV^+ cell lines and − and open shapes the HPV^− cell lines). […] These cells were good controls, as HPV is an established causative agent in CC carcinogenesis. Two HPV^+ cell lines, SiHa and CaSki were selected as the positive controls and the Saos-2 cell line was used as an HPV-negative control. […] FIG. 7B is a graphical representation of the cell growth inhibition of cervical cancer HPV^+ and HPV^− cell lines by GA-OH. HPV^+ cell lines display higher sensitivity than do HPV^− cell lines as shown by the leftwards shift of the HPV^+ curves (SCC47, 90, 104, 152 in FIG. 7A and SiHa and CaSki in FIG. 7B).
All working concentrations were diluted in PBS to the desired concentration before use. To test the effect of gambogic acid and/or its derivatives on cell viability, all cell lines were seeded at 2×10^4 per well in 96-well plates and allowed to adhere overnight. Various concentrations of the analogues were added and the cells incubated at 37° C. for 24 hr. Viability was then measured using the MTT assay, performed as described previously. […] Cell viability and potency were assessed from % inhibition relative to the vehicle control, and IC50 dose curves were generated using GraphPad Prism.

[6] = toxicities to organs only at high concentrations; cited from earlier work

With `CC(C)=CCCC1(C)CC(O)c2c(O)c3c(c(CC=C(C)C)c2O1)OC12C(=CC4CC1C(C)(C)OC2(C/C=C(\C)C(=O)O)C4=O)C3=O` (stereo not shown) [analog #5, neo-gambogic acid] the “rank among highest IC50s relative to the parent compound” value [1] was “fourth”.
For `CC(C)=CCc1c2c(c(O)c3c1O[C@]14C(=C[C@@H]5C[C@H]1C(C)(C)O[C@@]4(C/C=C(/C)C(=O)O)C5=O)C3=O)C=CC(C)(C)O2` [analog #2, morellic acid], the “inhibition of E6-caspase 8 binding relative to GA” value [2] was “did not significantly affect the activity”.
For `O=c1c(O)c(-c2cc(O)c(O)c(O)c2)oc2cc(O)cc(O)c12` [myricetin, reference compound], the IC50 [3] was 5.6 µM and the IC50 ([2]; read-out: IC50 against E6-Caspase 8) was 4.6 µM.
For `CC(C)=CCCC1(C)C=Cc2c(O)c3c(c(CC=C(C)C)c2O1)O[C@]12C(=CC4C[C@H]1C(C)(C)OC2(CC=C(C)C)C4=O)C3=O` (stereo partly shown) [analog #6, gambogin], the “rank among highest IC50s relative to the parent compound” value [1] was “first”.
For `CC(C)=CCC/C(C)=C/Cc1c(O)c(CC=C(C)C)c2c(c1O)C(=O)C1=C[C@@H]3C[C@H]4C(C)(C)O[C@@](C/C=C(/C)C(=O)O)(C3=O)[C@@]14O2` [analog #3, gambogenic acid], the “rank among highest IC50s relative to the parent compound” value [1] was “third”.
With `[NH2][Pt]([NH2])([Cl])[Cl]` [CDDP, cisplatin, reference compound] the “sensitization to photon radiation” value [4] was “greatest sensitization”.
For `CC(=O)Oc1c2c(c(CC=C(C)C)c3c1C(=O)C1=C[C@@H]4CC5C(C)(C)OC(C/C=C(\C)C(=O)O)(C4=O)[C@@]15O3)OC(C)(CCC=C(C)C)C=C2` (stereo partly shown) [analog #8, acetyl iso-gambogic acid], the “potency in MTT assay” value ([1]; SCC104, 24 hr) was “diminished activity” and the “inhibition of E6-caspase 8 binding relative to GA” value [2] was “did not significantly affect the activity”.
In the case of `CC(C)=CCC[C@]1(C)C=Cc2c(O)c3c(c(CC=C(C)C)c2O1)O[C@]12C(=C[C@@H]4CC1C(C)(C)O[C@@]2(C/C=C(/C)C(N)=O)C4=O)C3=O` [analog #4, gambogic amide], the “inhibition of E6-caspase 8 binding relative to GA” value [2] is reported as “did not significantly affect the activity”.
For `CC(C)=CCC[C@]1(C)C=Cc2c(O)c3c(c(CC=C(C)C)c2O1)O[C@]12C(=C[C@@H]4C[C@H]1C(C)(C)O[C@@]2(C/C=C(/C)C(=O)O)C4=O)C3=O` [gambogic acid], the IC50 [3] was 1.7 µM, the “potency and selectivity for HPV+ versus HPV- cells” value [5] was “significantly more sensitive” and the IC50 ([2]; 11 compounds that passed counter-screening, read-out: IC50 (μM) against E6-Caspase 8 binding) was 2 µM. For the same compound, the IC50 ([2]; head to head comparison gambogic acid vs myricetin, read-out: IC50 against E6-Caspase 8) was 1.9 µM and the “tolerability in animal studies” value [6] was “relatively tolerable”.
With `CC(C)=CCc1c2c(c(O)c3c1OC14C(=CC5CC1C(C)(C)OC4(C/C=C(\C)CO)C5=O)C3=O)C=CC(C)(C)O2` (stereo not shown) [analog #7, iso morellinol] the “inhibition of E6-caspase 8 binding relative to GA” value [2] was “did not significantly affect the activity”.
